# Data from patent US9980943B2, “Methods of treating muscular dystrophy” (BOARD OF REGENTS OF THE NEVADA SYSTEM OF HIGHER EDUCATION, …, priority 2013, dated 2018).
# Key:
# Assay type in all cases: cell-based, mouse
# [1] = system: β-galactosidase in CMV-LacZ C2C12 myoblasts; assay: CMV-LacZ secondary screen in C2C12 myoblasts (β-Gal stabilizing assay); conditions: CMV-LacZ C2C12 myoblasts
# Outline: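 Dose-response runs at 0.5–40 μM (0.5, 1, 5, 10, 20, 40 μM; N=2 per point) used a clonal C2C12 line carrying CMV-LacZ. Cells were assayed as myoblasts or as differentiated myotubes, and β-galactosidase levels were read with the FDG fluorogenic substrate.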
# [2] = system: α7 integrin (LacZ reporter in α7βgal+/− myoblasts); assay: Myoblast α7+/LacZ integrin FDG assay (Burkin assay in myoblasts, 96-well); conditions: α7+/LacZ myoblasts, 96-well
# [3] = system: α7 integrin (LacZ reporter in α7+/LacZ myotubes); assay: Myotube α7 integrin FDG assay (Burkin assay in myotubes, 96-well); conditions: myotubes
# [4] = system: β-galactosidase in CMV-LacZ C2C12 myotubes; assay: CMV-LacZ secondary screen in C2C12 myotubes (β-Gal stabilizing assay); conditions: C2C12 CMV-LacZ myotubes, fold relative to DMSO
# Outline: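 Stable CMV-LacZ C2C12 clone; six-point curve 0.5–40 μM; duplicates.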
Structure (SMILES),CMV-LACZ in Myoblasts (β-galactosidase activity relative to DMSO) ([1]; 0.5 uM),CMV-LACZ in Myoblasts (β-galactosidase activity relative to DMSO) ([1]; 1 uM),CMV-LACZ in Myoblasts (β-galactosidase activity relative to DMSO) ([1]; 5 uM),CMV-LACZ in Myoblasts (β-galactosidase activity relative to DMSO) ([1]; 10 uM),CMV-LACZ in Myoblasts (β-galactosidase activity relative to DMSO) ([1]; 20 uM),CMV-LACZ in Myoblasts (β-galactosidase activity relative to DMSO) ([1]; 40 uM),"Burkin Assay in Myoblasts, signal relative to DMSO ([2]; 0.5 uM)","Burkin Assay in Myoblasts, signal relative to DMSO ([2]; 1 uM)","Burkin Assay in Myoblasts, signal relative to DMSO ([2]; 5 uM)","Burkin Assay in Myoblasts, signal relative to DMSO ([2]; 10 uM)","Burkin Assay in Myoblasts, signal relative to DMSO ([2]; 20 uM)","Burkin Assay in Myoblasts, signal relative to DMSO ([2]; 40 uM)","Burkin Assay in Myotubes, α7 integrin LacZ reporter signal relative to DMSO ([3]; 0.5 uM)","Burkin Assay in Myotubes, α7 integrin LacZ reporter signal relative to DMSO ([3]; 1 uM)","Burkin Assay in Myotubes, α7 integrin LacZ reporter signal relative to DMSO ([3]; 5 uM)","Burkin Assay in Myotubes, α7 integrin LacZ reporter signal relative to DMSO ([3]; 10 uM)","Burkin Assay in Myotubes, α7 integrin LacZ reporter signal relative to DMSO ([3]; 20 uM)","Burkin Assay in Myotubes, α7 integrin LacZ reporter signal relative to DMSO ([3]; 40 uM)","CMV-LACZ in Myotubes, signal relative to DMSO ([4]; 0.5 uM)","CMV-LACZ in Myotubes, signal relative to DMSO ([4]; 1 uM)",further results
Cc1ccc(Cn2nnc3c(=O)[nH]c(C4CCCN(C(=O)c5ccco5)C4)nc32)cc1 (stereo not drawn) [MLS001217212-01],1.1804,0.9179,1.0711,1.0626,1.1137,0.9459,1.095,1.178,0.9785,0.9933,0.9967,1.064,0.8233,0.8386,0.8831,0.8772,0.7663,0.7366,1.0190,0.9610,"CMV-LACZ in Myotubes, signal relative to DMSO ([4]; 5 uM): 0.9795; CMV-LACZ in Myotubes, signal relative to DMSO ([4]; 10 uM): 1.0832; CMV-LACZ in Myotubes, signal relative to DMSO ([4]; 20 uM): 1.1842; CMV-LACZ in Myotubes, signal relative to DMSO ([4]; 40 uM): 1.0105"
CCCc1nnc(SCC(=O)NC2CCCC2)n1CCOC [MLS001217935-01],1.1729,1.1167,1.0175,1.0465,0.7859,0.5381,1.162,1.076,0.9106,0.893,0.8002,0.587,0.9075,1.018,0.8812,1.081,0.7887,0.5246,0.9705,1.1381,"CMV-LACZ in Myotubes, signal relative to DMSO ([4]; 5 uM): 1.1473; CMV-LACZ in Myotubes, signal relative to DMSO ([4]; 10 uM): 0.9648; CMV-LACZ in Myotubes, signal relative to DMSO ([4]; 20 uM): 1.0547; CMV-LACZ in Myotubes, signal relative to DMSO ([4]; 40 uM): 0.9495"
O=C(COc1ccc(Cl)cc1)N1CCN(C2CCCC2)CC1.O=C(O)C(=O)O [MLS001221318-01],0.8528,1.0538,1.0999,0.9955,1.0181,1.5641,1.118,1.283,1.01,0.9944,1.054,1.075,1.133,1.082,0.9266,0.9591,0.8071,0.7186,1.0037,1.4059,"CMV-LACZ in Myotubes, signal relative to DMSO ([4]; 5 uM): 1.1337; CMV-LACZ in Myotubes, signal relative to DMSO ([4]; 10 uM): 0.9944; CMV-LACZ in Myotubes, signal relative to DMSO ([4]; 20 uM): 1.2212; CMV-LACZ in Myotubes, signal relative to DMSO ([4]; 40 uM): 0.8576"
O=C(NCc1ccccc1)C(c1c(F)cccc1Cl)N(C(=O)c1csnn1)C1CC1 (stereo not drawn) [MLS001221908-01],0.9663,0.7607,0.9357,0.7908,0.9726,0.6789,1.051,0.9531,0.9306,0.8812,1.433,0.5684,1.197,0.9589,0.889,0.9693,0.818,0.7406,0.8562,0.9171,"CMV-LACZ in Myotubes, signal relative to DMSO ([4]; 5 uM): 0.9745; CMV-LACZ in Myotubes, signal relative to DMSO ([4]; 10 uM): 1.1838; CMV-LACZ in Myotubes, signal relative to DMSO ([4]; 20 uM): 1.0770; CMV-LACZ in Myotubes, signal relative to DMSO ([4]; 40 uM): 0.8850"
O=C(CSc1nnc2c(n1)[nH]c1ccccc12)NCc1ccccc1F [MLS001225512-01],0.9597,1.0843,1.1655,1.4266,0.8237,1.0111,1.1596,0.9131,1.173,0.8832,1.108,1.284,0.929,1.059,0.9799,0.8235,0.8431,0.7401,1.0162,1.0381,"CMV-LACZ in Myotubes, signal relative to DMSO ([4]; 5 uM): 0.9459; CMV-LACZ in Myotubes, signal relative to DMSO ([4]; 10 uM): 1.0077; CMV-LACZ in Myotubes, signal relative to DMSO ([4]; 20 uM): 1.2482; CMV-LACZ in Myotubes, signal relative to DMSO ([4]; 40 uM): 0.8871"
CC(C)c1ccc(NC(=O)CN2C(=O)c3ccccc3S2(=O)=O)cc1 [MLS001229477-01],1.0283,1.1345,1.1078,1.1311,1.0674,0.8800,0.8703,0.8296,1.367,0.9454,0.9634,0.9019,0.8015,0.9368,0.9702,0.9015,0.8376,0.8339,1.0126,1.1095,"CMV-LACZ in Myotubes, signal relative to DMSO ([4]; 5 uM): 0.9250; CMV-LACZ in Myotubes, signal relative to DMSO ([4]; 10 uM): 0.9587; CMV-LACZ in Myotubes, signal relative to DMSO ([4]; 20 uM): 0.9622; CMV-LACZ in Myotubes, signal relative to DMSO ([4]; 40 uM): 0.9611"
